From patent US20020010125A1, “Assay for agents that induce chemokinesis” (priority 2000, published 2002)
Entries after “also recorded” stand apart in the source; their conditions may differ.

Legend:
[1] = test system: chronic lymphocytic leukemia cells; experiment: Chemokinesis: migration of chronic lymphocytic leukemia cells through a membrane, no etodolac or chemokine in lower well; type: cell-based, human; details: overnight incubation at 200 μmol concentration, versus cells without etodolac; FIG. 1
Experimental: Cell migration was measured in a 24-well modified Boyden chamber (Transwell, Corning-Costar, N.Y.). The recombinant human IP-10 chemokine (R&D Systems, McKinley Place, Nebr.) was diluted in RPMI-1640 medium at 200 ng/ml, and used to evaluate the chemotactic properties of lymphocytes from B-CLL patients. Polycarbonate membranes with pore size of 3 μm were used. A total of […] of chemokines or control medium was added to the bottom wells, and […] of 2 to 5.0×10^6 cells/ml cells resuspended in RPMI-1640 were added to the top wells. […] The membranes were then removed, and the cells present on the bottom well were quantified by flow cytometry. For cell quantification, a fixed acquisition time of 30 seconds was used per sample, and beads were run during each experiment to ensure a reproducible acquisition. All assays were performed in triplicate. B-Chronic lymphocytic leukemia (B-CLL) cells were pre-incubated in the presence of various concentrations of etodolac for 16 hours, prior to loading in the upper part of a modified Boyden chamber with pore size of 3 μm. The lower reservoir contained either medium alone, or the CXCR3-binding chemokine IFN-inducible protein 10 (IP-10, 200 ng/ml). After 2 hours of incubation, the cells that traveled through the polycarbonate membrane were enumerated by flow cytometry. […] Control cells were incubated in the same medium without etodolac. The cells were then added to the upper wells of chemotaxis chambers divided by a 5 to 8 micron membrane. No etodolac was present in the lower portion of each well. FIG. 1 provides a graph of the number of chronic lymphocytic leukemia cells crossing through the membranes into the lower well.

[2] = test system: peripheral blood lymphocytes; experiment: Chemokinesis: migration of peripheral blood lymphocytes through a membrane, no etodolac in lower well; type: cell-based, human; details: overnight incubation at 250 μM, versus cells without etodolac; FIG. 2
Experimental: Cell migration was measured in a 24-well modified Boyden chamber (Transwell, Corning-Costar, N.Y.). The recombinant human IP-10 chemokine (R&D Systems, McKinley Place, Nebr.) was diluted in RPMI-1640 medium at 200 ng/ml, and used to evaluate the chemotactic properties of lymphocytes from B-CLL patients. Polycarbonate membranes with pore size of 3 μm were used. A total of […] of chemokines or control medium was added to the bottom wells, and […] of 2 to 5.0×10^6 cells/ml cells resuspended in RPMI-1640 were added to the top wells. […] The membranes were then removed, and the cells present on the bottom well were quantified by flow cytometry. For cell quantification, a fixed acquisition time of 30 seconds was used per sample, and beads were run during each experiment to ensure a reproducible acquisition. All assays were performed in triplicate. Peripheral blood lymphocytes were incubated overnight in medium containing a racemic mixture of etodolac, the R-enantiomer of etodolac or the S-enantiomer of etodolac at 250 μM concentration. Control cells were incubated in the same medium without etodolac. The cells were then added to the upper wells of chemotaxis chambers divided by a 5 to 8 micron membrane. No etodolac was present in the lower portion of each well. FIG. 2 provides a graph of the number of peripheral blood lymphocytes crossing through the membranes into the lower well.

[3] = test system: Chronic lymphocytic leukemia (B-CLL) cells; experiment: B-CLL colony morphology, aggregation and viability by light microscopy; type: cell-based, human; details: 24 hours
Experimental: Chronic lymphocytic leukemia (B-CLL) cells were incubated for 24 hr in medium containing the R-enantiomer of etodolac at 0.0 μM, 100 μM and 250 μM. concentrations. The cell morphology was observed under light microscopy. Control cells incubated without etodolac grew in large, flat colonies (FIG. 6A). However, after incubation for 24 hours with either 100 μM or 250 μM.

[4] = test system: Colon cancer cells (HCT-116); experiment: Actin filament staining (phalloidin) and cell shape in colon cancer cells; type: cell-based; details: 500 μM, 5 hours; FIG. 7B
Experimental: Colon cancer cells (HCT-116) were incubated for 5 hours with either no etodolac (control cells) or 500 μM. R-etodolac (test cells). The cells were then fixed and the intracellular actin filaments were stained with phalloidan conjugated to a fluorogenic dye (Alexa-green). The control cells (FIG. 7A) had actin filaments arranged in rigid structures (stress fibers) that confer the “stretched” shape often seen in normal cells.

[5] = test system: B-CLL cells; details: for chemotactic response of B-CLL cells to IP-10: overnight incubation at 12.5 μM to 500 μM, B-CLL patients n=4, FIG. 3
[6] = test system: peripheral blood lymphocytes; details: for number of peripheral blood lymphocytes migrating through the membrane to IP-10: overnight incubation at 0 μM to 500 μM, FIG. 4
[7] = test system: peripheral blood leukocytes; experiment: Peripheral blood leukocyte counts in normal mice after etodolac by gastric lavage; type: in vivo; details: blood at 4 hr, 24 hr, 158 hr and 14 days, FIG. 5
Experimental: Normal mice were given 25 mg/kg etodolac or 100 mg/kg etodolac by gastric lavage. Control mice received no etodolac. Blood was drawn from each mouse at 4 hr, 24 hr, 158 hr and 14 days after etodolac administration and peripheral blood leukocyte counts were done.

[8] = test system: B-CLL cells; experiment: Ex vivo viability (erythrosin B) of B-CLL cells isolated from patients before and after etodolac challenge; type: in vivo, human; details: for % Increased cell death: after versus before etodolac
Text: Written informed consent was obtained to procure peripheral blood from all patients and with normal healthy volunteers. Patients had to have B-CLL according to National Cancer Institute (NCI) criteria of any Rai stage. Criteria for requiring therapy were as follows: disease-related symptoms, anemia and/or thrombocytopenia, bulky lymphadenopathy, and/or clinically relevant splenomegaly. Mononuclear cells were isolated by gradient centrifugation through Ficoll-Paque. […] At the indicated times, viability assays were performed by erythrosin B dye exclusion. To determine if etodolac could reduce B-CLL survival in vivo, six B-CLL patients were enrolled in a first step challenge assay for etodolac sensitivity. Each patient received one 400 mg etodolac tablet, and a second tablet 12 hours later. B-CLL cells were isolated just before the first tablet, and 12 hours after the second. B-CLL cells recovered from patients were then cultured with 20% autologous plasma and apoptosis rates were measured, either before or after etodolac treatment. […] The five etodolac-sensitive patients were then enrolled in a second-step clinical trial in which they took etodolac for one month (400 mg bid). […] After 72 hour of incubation, viability assays were performed by erythrosin B staining. Numbers indicate the % of viable cells.

[9] = test system: circulating lymphocyte counts; experiment: Clinical trial of etodolac in B-CLL patients: circulating lymphocyte counts, lymphadenopathy; type: in vivo, human
Experimental: To determine if etodolac could reduce B-CLL survival in vivo, six B-CLL patients were enrolled in a first step challenge assay for etodolac sensitivity. Each patient received one 400 mg etodolac tablet, and a second tablet 12 hours later. B-CLL cells were isolated just before the first tablet, and 12 hours after the second. B-CLL cells recovered from patients were then cultured with 20% autologous plasma and apoptosis rates were measured, either before or after etodolac treatment. […] The five etodolac-sensitive patients were then enrolled in a second-step clinical trial in which they took etodolac for one month (400 mg bid).

CCc1cccc2c3c([nH]c12)[C@@](CC)(CC(=O)O)OCC3 [R-etodolac]
number of chronic lymphocytic leukemia cells crossing through the membranes into the lower well [1]: more cells migrated through the membrane | number of peripheral blood lymphocytes crossing through the membranes into the lower well [2]: did not induce substantial chemokinesis | total number of B-CLL cells or their viability ([3]; 100 μM or 250 μM): No effect | B-CLL cell movement and colony morphology ([3]; 100 μM, FIG. 6B): the cells migrated toward each other, the diameter of the colonies was reduced, and multiple layers of cells were present in the colonies | B-CLL cell movement and colony morphology ([3]; 250 μM, FIG. 6C): the cells migrated toward each other and the diameter of the colonies was reduced; also recorded: the cells migrated even more toward each other, the diameter of the colonies was even further reduced and even more layers of cells were present in the colonies | actin filaments and cell shape of HCT-116 cells [4]: no conventional stress fibers are observed and the cells assume a rounded shape | chemotactic response of B-CLL cells to IP-10 [5]: enhanced B-CLL chemotaxis | number of peripheral blood lymphocytes migrating through the membrane to IP-10 [6]: less cell migration than did the racemic mixture

CCc1cccc2c3c([nH]c12)[C@](CC)(CC(=O)O)OCC3 [S-etodolac]
number of chronic lymphocytic leukemia cells crossing through the membranes into the lower well [1]: more cells migrated through the membrane | number of peripheral blood lymphocytes crossing through the membranes into the lower well [2]: did not induce substantial chemokinesis | chemotactic response of B-CLL cells to IP-10 [5]: enhanced B-CLL chemotaxis | number of peripheral blood lymphocytes migrating through the membrane to IP-10 [6]: less cell migration than did the racemic mixture

CCc1cccc2c3c([nH]c12)C(CC)(CC(=O)O)OCC3 (racemic) [etodolac]
number of chronic lymphocytic leukemia cells crossing through the membranes into the lower well [1]: more cells migrated through the membrane | number of peripheral blood lymphocytes crossing through the membranes into the lower well [2]: more cells migrated through the membrane | number of peripheral blood leukocytes ([7]; 25 mg/kg by gastric lavage): reduced | number of peripheral blood leukocytes ([7]; 100 mg/kg by gastric lavage): reduced | % Increased cell death ([8]; patient #1): 13% | % Increased cell death ([8]; patient #2): 57% | % Increased cell death ([8]; patient #3): 69% | % Increased cell death ([8]; patient #4): 0% | % Increased cell death ([8]; patient #5): 34% | % Increased cell death ([8]; patient #6): 41% | patients whose cells displayed more ex vivo spontaneous apoptosis after in vivo etodolac challenge than before ([8]; six B-CLL patients, two 400 mg tablets 12 hours apart): 5 out of 6 | changes in lymphadenopathy ([9]; B-CLL patients on etodolac therapy): did not have clinically obvious changes in lymphadenopathy | B-CLL counts when etodolac treatment was interrupted ([9]; after one month of 400 mg bid): rebounded to pre-treatment levels | drop of circulating lymphocyte counts ([9]; two retreated B-CLL patients, over one month, results not shown): ~50% | expression of the CXCR receptor, as assessed by antibody staining ([5]; B-CLL cells, data not shown): not due to increased expression of the CXCR receptor | concentration at which chemotaxis of B-CLL cells decreased, due to a loss of cell viability ([5]; human, 16 h): ≥ 500 µM | chemotactic response of B-CLL cells to IP-10 [5]: increased the chemotactic response | etodolac concentration up to which the number of migrating peripheral blood lymphocytes increased ([6]; IP-10 in lower well): 100 µM | concentration at which chemotaxis of peripheral blood lymphocytes decreased, due to a loss of cell viability ([6]; human): ≥ 250 µM | number of peripheral blood lymphocytes migrating through the membrane to IP-10 [6]: increased with etodolac concentration
